The source of these data is US6022857A, “Radiolabeled compounds for thrombus imaging” (Diatide, Inc., priority 1998, dated 2000).

Data set [1] has as its system femoral vein thrombus. Briefly: Canine model of DVT: thrombus uptake and imaging of Tc-99m labeled reagent. In kind it is in vivo. To be noted: approximately 4 h postinjection. As to the method: *ratio of (% injected dose/g in a femoral vein thrombus)/(% injected
dose/g in blood) at approximately 4 h postinjection of each Tc99 m labele
reagent in a canine model of DVT

Data set [2] concerns human platelets in platelet-rich plasma. Briefly: Platelet aggregation inhibition assay (ADP-induced, platelet-rich plasma). The data set is classed as cell-based. As to the method:
Platelet aggregation studies were performed essentially as described by Zucker (1989, Methods in Enzymol. 169: 117-133). Briefly, platelet aggregation was assayed with or without putative platelet aggregation inhibitory compounds using fresh human platelet-rich plasma, comprising 300,000 platelets per microliter. Platelet aggregation was induced by the addition of a solution of adenosine diphosphate to a final concentration of 10 to 15 micromolar, and the extent of platelet aggregation monitored using a Bio/Data aggregometer (Bio/Data Corp., Horsham, Pa.). The concentrations of platelet aggregation inhibitory compounds used were varied from 0.1 to 500 μg/mL. The concentration of inhibitor that reduced the extent of platelet aggregation by 50% (defined as the IC50) was determined from plots of inhibitor concentration versus extent of platelet aggregation. An inhibition curve for peptide RGDS was determined for each batch of platelets tested.
**concentration of reagent that inhibits by 50% the aggregation of human
platelets in plateletrich plasma induced to aggregate by the addition of
adenosine diphosphate (ADP)

In data set [3] the test system is deep-vein thrombi. Briefly: Pilot human clinical study: scintigraphic imaging of deep-vein thrombi. The data set is classed as in vivo. Conditions: Tc-99m labeled. As to the method: A series of experiments comprising a pilot human clinical study of one embodiment of the scintigraphic imaging agents of the invention, designated P280, having the chemical structure:
were performed. These experiments were performed on 9 human patients (6 males, 3 females), ages 30 to 60 years and weighing 63 to 100 kg. Each of the patients presented clinically with the symptoms of deep-vein thrombosis, and the diagnosis was confirmed by physical work-up, ultrasonography and/or contrast venography.
Each patient in the study was administered 10-22 mCi Tc-99m labeled P280 comprising approximately 0.25 mg peptide, by intravenous injection. Scintigraphic imaging was then performed over four hours using a large field-of-view gamma camera equipped with a high-resolution collimator (photopeaked at 140 keV, with a 20%±window). Gamma camera imaging was commenced simultaneously with injection. Anterior images followed by posterior images over the legs were acquired over the first hour, then at 2 and 4 hours post-injection.

For data set [4], the system named is femoral vein thrombus. The data set can be described thus: Canine model of DVT: thrombus uptake and imaging of Tc-99m labeled reagent. Conditions: in vivo canine model system.
[5] abbreviates: human platelet-rich plasma, aggregation induced by ADP, read-out: IC50 (concentration of reagent that inhibits by 50% the aggregation of human platelets).

pIC50: −log10 of the molar value. “And” between values parts separate entries of the source, which are not always exact repeats. Equal values may be shown once. Read-outs that look alike come from different tables or passages of the source. Where no end group is shown, it is not given here. The star is where a group is joined. Acm = CC(=O)NC*

On to “(CH2 CO--YD ApcGDCGGCAcm GCAcm GGC-amide)2 -(BAT-BS) [Peptide P357]”, for which, in data set [1], the “Clot/Blood: ratio of (% injected dose/g in a femoral vein thrombus)/(% injected dose/g in blood)” value was determined as 6.3 ± 3.4. In addition, the pIC50 in data set [2] (setting [5]) is 7.10.

As to “(CH2 CO--YD ApcGDCGGCAcm GCAcm GGC-amide)3 -TSEA [Peptide P317]”, in data set [1], the “Clot/Blood: ratio of (% injected dose/g in a femoral vein thrombus)/(% injected dose/g in blood)” value is given as 3.8 ± 2.2. Further, the pIC50 in data set [2] (setting [5]) was 7.44.

In the case of “(CH2 CO--YD ApcGDCKGCAcm GCAcm GGC-amide)2 -BSME [Peptide P381]”, in data set [1], the “Clot/Blood: ratio of (% injected dose/g in a femoral vein thrombus)/(% injected dose/g in blood)” value came to 2.5. In data set [2] (setting [5]), the pIC50 is 7.46.

Regarding “(CH2 CO.YD ApcGDCGGCAcm GCAcm GGC.amide)2 -BSME [Peptide P280]”, the “patients in whom thrombi were visualized” value in data set [3] (9 patients with confirmed DVT) is given as 8 of the 9. In addition, the “toxicity or other adverse effects” value in data set [3] (10-22 mCi, approximately 0.25 mg peptide i.v., human patients) is recorded as “no toxicity or other adverse effects”. Moreover, in data set [3] (human patients with DVT), the “time after injection at which thrombus visualization was evident” value was 15 to 30 min and the “time post-injection for which thrombus remained visible” value fell in the range of 4 to 24 h. In data set [3] (humans in vivo), the “scintigraphic images of deep-vein thrombi” value was “excellent scintigraphic images”. Also, the “injected dose remaining in the circulation” value in data set [3] (intravenous, 1 hour post-injection, human patients) is recorded as “less than 10%”. Moreover, in data set [3] (intravenous, human patients), the “injected dose cleared by the kidneys” value is 60-70%. Further, the “scintigraphic images of venous thrombi” value in data set [4] is on record as “excellent scintigraphic images”. Besides, in data set [2] (unlabeled reagent, read-out: IC50, platelet aggregation inhibition), the pIC50 was 7.06.

As to “(CH2 COYD.Apc.GDCGGCAcm GCAcm GGCamide)2 (CH2 CO)2 K(Nε-K)GCamide [Peptide P667]”, the “Clot/Blood: ratio of (% injected dose/g in a femoral vein thrombus)/(% injected dose/g in blood)” value in data set [1] was 5.9 and 5.0. Moreover, in data set [2] (setting [5]), the pIC50 was 7.09.

Take “AcSYGRGDVRGDFKCAcm GCAcm (SEQ ID NO: 6) (Ac-SYGRGDVRGDFKC(Acm)GC(Acm)) [Peptide P47]”: in data set [1], the “Clot/Blood: ratio of (% injected dose/g in a femoral vein thrombus)/(% injected dose/g in blood)” value came out at 1.0. For the same substance, in data set [2] (setting [5]), the pIC50 is 4.64.

With “AcSYGRGDVRGDFKCTCCA (SEQ ID NO: 7) (Ac-SYGRGDVRGDFKCTCCA; cysteine pairing not given here) [Peptide P63]”, the “Clot/Blood: ratio of (% injected dose/g in a femoral vein thrombus)/(% injected dose/g in blood)” value in data set [1] was 1.7. In addition, the pIC50 in data set [2] (setting [5]) was 4.72.

“CAcm GCAcm RRRRRRRRRGDV (SEQ ID NO: 5) (C(Acm)GC(Acm)RRRRRRRRRGDV) [Peptide P32]”: the “Clot/Blood: ratio of (% injected dose/g in a femoral vein thrombus)/(% injected dose/g in blood)” value in data set [1] was determined as 1.2 ± 0.2. In data set [2] (setting [5]), the pIC50 was 4.59.

For “CH2 CO--YD ApcGDCGGCAcm GCAcm GGC-amide [Peptide P246]”, the “Clot/Blood: ratio of (% injected dose/g in a femoral vein thrombus)/(% injected dose/g in blood)” value in data set [1] is 4.4 ± 1.8. Further, the pIC50 in data set [2] (setting [5]) is 6.07.

With “CH2 CO--YD ApcGDCGGGCAm GCAcm amide [Peptide P154]”, the “Clot/Blood: ratio of (% injected dose/g in a femoral vein thrombus)/(% injected dose/g in blood)” value in data set [1] was 2.0 ± 0.5. Moreover, the pIC50 in data set [2] (setting [5]) is 6.52.

“CH2 CO--YD RGDCCAcm GCAcm amide [Peptide P81]”: the “Clot/Blood: ratio of (% injected dose/g in a femoral vein thrombus)/(% injected dose/g in blood)” value in data set [1] is reported as 1.8 ± 0.6. Besides, the pIC50 in data set [2] (setting [5]) is 4.60.

For “CH2 CO--YD RGDCGGCAcm GCAcm amide [Peptide P143]”, in data set [1], the “Clot/Blood: ratio of (% injected dose/g in a femoral vein thrombus)/(% injected dose/g in blood)” value is recorded as 1.4. In data set [2] (setting [5]), the pIC50 was 5.89.

Regarding “GRDGVRGDFCAcm GCAcm amide(SEQ ID NO: 8) (GRDGVRGDFC(Acm)GC(Acm)-NH2; N-terminus assumed; SMILES CC(=O)NCSC[C@H](NC(=O)CNC(=O)[C@H](CSCNC(C)=O)NC(=O)[C@H](Cc1ccccc1)NC(=O)[C@H](CC(=O)O)NC(=O)CNC(=O)[C@H](CCCNC(=N)N)NC(=O)[C@@H](NC(=O)CNC(=O)[C@H](CC(=O)O)NC(=O)[C@H](CCCNC(=N)N)NC(=O)CN)C(C)C)C(N)=O) [Peptide P98]”, the “Clot/Blood: ratio of (% injected dose/g in a femoral vein thrombus)/(% injected dose/g in blood)” value in data set [1] came to 1.7. In addition, in data set [2] (setting [5]), the pIC50 is 4.82.

Turning to “GRGDVRGDFKCAcm GCAcm amide (SEQ ID NO: 3) (GRGDVRGDFKC(Acm)GC(Acm)-NH2; N-terminus assumed; SMILES CC(=O)NCSC[C@H](NC(=O)CNC(=O)[C@H](CSCNC(C)=O)NC(=O)[C@H](CCCCN)NC(=O)[C@H](Cc1ccccc1)NC(=O)[C@H](CC(=O)O)NC(=O)CNC(=O)[C@H](CCCNC(=N)N)NC(=O)[C@@H](NC(=O)[C@H](CC(=O)O)NC(=O)CNC(=O)[C@H](CCCNC(=N)N)NC(=O)CN)C(C)C)C(N)=O) [Peptide P97]”, the “Clot/Blood: ratio of (% injected dose/g in a femoral vein thrombus)/(% injected dose/g in blood)” value in data set [1] was determined as 1.0. Moreover, the pIC50 in data set [2] (setting [5]) is 5.10.
